Laboratory results published in patent publication US10668108B2, “Compositions and methods of treating liver disease” (Children's Hospital Medical Center, priority 2016, dated 2020).
Entries after “also recorded” stand apart in the source; their conditions may differ.

Legend:
[1] = tested on: HLO; assay: HLO survival assay, Intralipid exposed HLO (PNALD model); format: cell-based; settings: added to 400 μM Intralipid exposed HLO (PNALD-HLO); FGF19 40 ng/ml
Description: PNALD is an iatrogenic fatty liver disease which occurs frequently in infants provided with parental nutrition (PN) solutions employing a lipid emulsion (Intralipid) that provide life-sustaining calories in the setting of inadequate absorption of enteral nutrients (Kumar and Teckman, 2015; Orso et al., 2016). PNALD has a histological evidence of steatosis, cell death (apoptosis), and fibrosis (Nandivada et al., 2013). To recapitulate PNALD pathology in HLO, we reconstituted components of Intralipid and placed it directly into HLO culture.
[…]; Kumar and Teckman, 2015; Neuschwander-Tetri et al., 2015). To implicate the therapeutic significance of OCA and FGF19 for PNALD like pathology in HLO, OCA and FGF19 were added to 400 μM Intralipid exposed HLO. […] Mechanistically, the accumulation of reactive oxygen species (ROS) is strongly associated with the fatty liver related hepatocyte death (Nandivada et al., 2013; Tsedensodnom and Sadler, 2013). We thus wondered whether OCA and FGF19 would inhibit the production of ROS so we sought to confirm that theory with live-cell imaging with CellROX dye. […]. […]
HLO survival assay. […] HLO were captured on The KEYENCE BZ-X710 Fluorescence Microscope every day. The surviving and dead organoids were counted manually from the photo. HLO with a rounded configuration was counted as the surviving while the organoids with out of shape is counted as dead. […]

[2] = tested on: HLO; assay: ROS live-cell imaging with CellROX dye in HLO; format: cell-based, human; settings: for ROS production: 400 μM Intralipid treated HLO, live-cell imaging, CellROX
Description: Because there are no established ameliorative strategies, and PNALD is the leading indication for liver transplantation in infants (El Kasmi et al., 2013), we further investigated preventive and therapeutic effects of FXR agonist obeticholic acid (OCA) and FGF19 hormone that are activated by OCA, which have shown great potential in nonalcoholic steatohepatitis treatment (Dash et al., 2017; Kumar and Teckman, 2015; Neuschwander-Tetri et al., 2015). To implicate the therapeutic significance of OCA and FGF19 for PNALD like pathology in HLO, OCA and FGF19 were added to 400 μM Intralipid exposed HLO. […] Mechanistically, the accumulation of reactive oxygen species (ROS) is strongly associated with the fatty liver related hepatocyte death (Nandivada et al., 2013; Tsedensodnom and Sadler, 2013). We thus wondered whether OCA and FGF19 would inhibit the production of ROS so we sought to confirm that theory with live-cell imaging with CellROX dye.
Phagocyte, lipids, ROS live-cell imaging. After being cultured in an ultra-low attachment 6 multi-well plate, 5-10 HLO were picked up and seeded in a Microslide 8 Well Glass Bottom plate (Ibidi, WI, USA) and subjected to live-cell staining. The following antibodies were used: pHrodo® Red S. aureus Bioparticles® Conjugate for Phagocyte activity (Thermo Fisher Scientific Inc.), BODIPY® 493/503 for lipids (Thermo Fisher Scientific Inc.), Di-8-ANEPPS for membrane (Thermo Fisher Scientific Inc.), and CellROX green reagent for ROS detection (Thermo Fisher Scientific Inc.). Nuclear staining was marked by NucBlue Live ReadyProbes Reagent (Thermo Fisher Scientific Inc.). […] The final lipid droplet volume was calculated by IMARIS8 and normalized by each organoid size. Significance testing for lipid droplet volume and ROS production (%) was conducted by Student's t-test.

[3] = tested on: HLO; assay: HLO survival, 800 μM OA treated HLO (3D cell titer glo); format: cell-based, human; settings: 800 μM OA + FGF19 40 ng/ml, same time point
Protocol: LPS and FFA exposure and OCA and FGF19 treatment. 20-30 hLOHLO, which had been isolated from Matrigel and washed by 1×PBS, were divided into each condition and cultured on an ultra-low attachment 6 multi-well plates (Corning). HLO were cultured with LPS (Sigma), OA (Sigma), LA (Sigma), SA (Sigma), or PA (Sigma) and collected at day 1 and 3 (for LPS HLO) and at day 3 and 5 (for OA) after the culture. To test the inhibitory effect of OCA (INT-747, MedChem Express, NJ, USA) and human FGF19 recombinant (Sigma) on HLO, 20-30 HLO were cultured in HCM media in the presence or absence of oleic acid (800 μM), and 1 μM OCA and 40 ng/ml FGF19 were added into 800 μM OA condition. HLO were collected at day 3 for lipids live-cell imaging and at day 5 for stiffness measurement.
HLO survival assay. HLO were collected from Matrigel and washed by 1×PBS. 30-40 organoids were cultured on an ultra-low attachment 6 multi-well plate (Corning). HLO were captured on The KEYENCE BZ-X710 Fluorescence Microscope every day. The surviving and dead organoids were counted manually from the photo. HLO with a rounded configuration was counted as the surviving while the organoids with out of shape is counted as dead. To assess the survival rate of OA treated HLO at the same time point, 3D cell titer glo assay was used (Promega, Wi, USA).

[4] = tested on: HLO; assay: HLO stiffness measurement by AFM; format: cell-based, human
Protocol: To further determine whether OCA and FGF19 have an impact on fibrosis, HLO stiffness was assessed. Organoid damage induced by Intralipid is extremely significant and treated HLOs for 5 days are not able to be stabilized on a dish, which is a minimal requirement for assessing the rigidity by AFM. To circumvent this limitation, the stiffness was assessed at Day3.
LPS and FFA exposure and OCA and FGF19 treatment. 20-30 hLOHLO, which had been isolated from Matrigel and washed by 1×PBS, were divided into each condition and cultured on an ultra-low attachment 6 multi-well plates (Corning). […]
HLO stiffness measurement by AFM. […] The AFM head with a silicon nitride cantilever (CSC37, k=0.3 N/m, MikroMasch, Bulgaria) was mounted on a fluorescence stereo microscope (M205 FA, Leica, Germany) coupled with a Z-axis piezo stage (JPK CellHesion module, JPK Instruments, Germany), which allows the indentation measurement up to the depth of ˜100 μm. […] The sample dish was then placed onto the AFM stage, and force-distance curves in a 14×14 matrix in a 25×25 μm square were measured from each HLO. Finally, Young's moduli (E, Pa) of HLOs were determined by fitting the obtained force-distance curves with the modified Hertz model (Sneddon, 1965). […]

Row | Molecule | number of surviving organoids [1] | ROS production [2] [%] | survival of 800 μM OA HLO [3] | effect on ROS production caused by 400 μM Int ([2]; 400 μM Intralipid, FGF19 40 ng/ml) | stiffness of OA treated HLO (AFM) ([4]; 800 μM OA + FGF19 40 ng/ml) | progression of fibrosis (HLO stiffness) ([4]; Intralipid treated HLO, stiffness assessed at Day3)
1 | CC[C@H]1[C@@H](O)[C@@H]2[C@H](CC[C@]3(C)[C@@H]([C@H](C)CCC(=O)O)CC[C@@H]23)[C@@]2(C)CC[C@@H](O)C[C@@H]12 [OCA, obeticholic acid, reference compound] | around 83% | 20 |  |  |  | 
2 | FGF19: human FGF19 recombinant (Sigma); hormone activated by OCA | ~78% | 30 | significantly improved | inhibit the ROS production | significantly softened; also recorded: decreased | reduce the progression of fibrosis
